From patent publication US12110276B2 (Genentech, Inc., priority 2021, dated 2024) come the findings set out here.

The target in one data set is TEAD1 (Homo sapiens (Human), UniProt P28347). The data set is described as follows: TR-FRET lipid pocket probe competition assay (Lipid HTRF), TEAD1.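 Note: His-tagged TEAD1 with biotinylated probe, detected via Europium anti-His and XL665 streptavidin, probe displacement lowers TR-FRET signal, IC50 from four-parameter nonlinear fit.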 It counts as binding.
Chain of TEAD1 (P28347 whole entry, species assumed): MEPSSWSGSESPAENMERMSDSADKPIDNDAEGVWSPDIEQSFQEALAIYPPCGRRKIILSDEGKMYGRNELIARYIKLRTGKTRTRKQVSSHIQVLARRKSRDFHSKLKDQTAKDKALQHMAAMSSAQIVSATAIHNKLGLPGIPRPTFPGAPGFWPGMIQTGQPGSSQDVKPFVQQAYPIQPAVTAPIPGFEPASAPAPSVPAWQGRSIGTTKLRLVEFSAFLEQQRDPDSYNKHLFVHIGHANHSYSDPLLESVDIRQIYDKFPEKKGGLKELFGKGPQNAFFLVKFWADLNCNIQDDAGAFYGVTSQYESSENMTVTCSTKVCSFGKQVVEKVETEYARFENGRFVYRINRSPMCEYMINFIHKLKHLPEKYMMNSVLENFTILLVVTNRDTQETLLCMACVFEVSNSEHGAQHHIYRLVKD
Data set [1] has as its target T1, TEAD2 (Homo sapiens (Human), UniProt Q15562). The data set is described as follows: biochemical.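 Note: TR-FRET competition assay with His-tagged TEAD protein and a biotinylated lipid pocket probe, compound pre-incubated 30 min or 4 h at room temperature, displacement lowers signal.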
In a further data set the target is TEAD3 (Homo sapiens (Human), UniProt Q99594). The data set is described as follows: TR-FRET lipid pocket probe competition assay (Lipid HTRF), TEAD3. The data set is classed as binding.
Chain of TEAD3 (Q99594 whole entry, species assumed): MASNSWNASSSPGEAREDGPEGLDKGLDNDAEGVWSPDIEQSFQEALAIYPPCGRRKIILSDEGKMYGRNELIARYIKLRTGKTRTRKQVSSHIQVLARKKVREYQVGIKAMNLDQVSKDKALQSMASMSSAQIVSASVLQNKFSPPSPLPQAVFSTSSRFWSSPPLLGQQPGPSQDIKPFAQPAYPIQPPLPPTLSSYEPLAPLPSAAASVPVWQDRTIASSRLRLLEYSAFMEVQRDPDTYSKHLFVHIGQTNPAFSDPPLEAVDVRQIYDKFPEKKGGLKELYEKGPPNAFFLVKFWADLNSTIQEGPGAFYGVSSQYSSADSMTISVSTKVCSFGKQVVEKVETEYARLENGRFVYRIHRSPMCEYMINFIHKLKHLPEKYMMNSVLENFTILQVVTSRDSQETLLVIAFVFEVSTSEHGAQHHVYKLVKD
The target in another data set is TEAD4 (Homo sapiens (Human), UniProt Q15561). The data set is described as follows: TR-FRET lipid pocket probe competition assay (Lipid HTRF), TEAD4.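 Note: His-tagged TEAD4 with biotinylated lipid-pocket probe, read by Europium anti-His and XL665 streptavidin, where probe displacement lowers the TR-FRET signal, IC50 from a four-parameter fit.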 It counts as binding.
Chain of TEAD4 (Q15561 whole entry, species assumed): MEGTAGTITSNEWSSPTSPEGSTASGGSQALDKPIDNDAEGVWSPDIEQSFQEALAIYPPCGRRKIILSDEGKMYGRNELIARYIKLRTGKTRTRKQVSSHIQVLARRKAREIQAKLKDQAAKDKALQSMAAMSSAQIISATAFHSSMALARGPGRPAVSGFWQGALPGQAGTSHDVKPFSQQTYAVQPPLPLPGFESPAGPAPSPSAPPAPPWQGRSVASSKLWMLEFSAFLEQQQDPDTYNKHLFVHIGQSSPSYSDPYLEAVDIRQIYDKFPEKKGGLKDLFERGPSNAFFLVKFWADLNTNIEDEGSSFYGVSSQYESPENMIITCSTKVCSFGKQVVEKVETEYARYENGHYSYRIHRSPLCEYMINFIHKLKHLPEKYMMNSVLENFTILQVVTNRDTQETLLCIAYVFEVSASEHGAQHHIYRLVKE
Another data set deals with hNav1.5 sodium channels (Homo sapiens (Human), UniProt Q14524). Nature of the data set: Cloned hNav1.5 sodium channels expressed in CHO cells, QPatch HT automated patch clamp. The data set is classed as cell-based.
Chain of hNav1.5 sodium channels (Q14524 whole entry): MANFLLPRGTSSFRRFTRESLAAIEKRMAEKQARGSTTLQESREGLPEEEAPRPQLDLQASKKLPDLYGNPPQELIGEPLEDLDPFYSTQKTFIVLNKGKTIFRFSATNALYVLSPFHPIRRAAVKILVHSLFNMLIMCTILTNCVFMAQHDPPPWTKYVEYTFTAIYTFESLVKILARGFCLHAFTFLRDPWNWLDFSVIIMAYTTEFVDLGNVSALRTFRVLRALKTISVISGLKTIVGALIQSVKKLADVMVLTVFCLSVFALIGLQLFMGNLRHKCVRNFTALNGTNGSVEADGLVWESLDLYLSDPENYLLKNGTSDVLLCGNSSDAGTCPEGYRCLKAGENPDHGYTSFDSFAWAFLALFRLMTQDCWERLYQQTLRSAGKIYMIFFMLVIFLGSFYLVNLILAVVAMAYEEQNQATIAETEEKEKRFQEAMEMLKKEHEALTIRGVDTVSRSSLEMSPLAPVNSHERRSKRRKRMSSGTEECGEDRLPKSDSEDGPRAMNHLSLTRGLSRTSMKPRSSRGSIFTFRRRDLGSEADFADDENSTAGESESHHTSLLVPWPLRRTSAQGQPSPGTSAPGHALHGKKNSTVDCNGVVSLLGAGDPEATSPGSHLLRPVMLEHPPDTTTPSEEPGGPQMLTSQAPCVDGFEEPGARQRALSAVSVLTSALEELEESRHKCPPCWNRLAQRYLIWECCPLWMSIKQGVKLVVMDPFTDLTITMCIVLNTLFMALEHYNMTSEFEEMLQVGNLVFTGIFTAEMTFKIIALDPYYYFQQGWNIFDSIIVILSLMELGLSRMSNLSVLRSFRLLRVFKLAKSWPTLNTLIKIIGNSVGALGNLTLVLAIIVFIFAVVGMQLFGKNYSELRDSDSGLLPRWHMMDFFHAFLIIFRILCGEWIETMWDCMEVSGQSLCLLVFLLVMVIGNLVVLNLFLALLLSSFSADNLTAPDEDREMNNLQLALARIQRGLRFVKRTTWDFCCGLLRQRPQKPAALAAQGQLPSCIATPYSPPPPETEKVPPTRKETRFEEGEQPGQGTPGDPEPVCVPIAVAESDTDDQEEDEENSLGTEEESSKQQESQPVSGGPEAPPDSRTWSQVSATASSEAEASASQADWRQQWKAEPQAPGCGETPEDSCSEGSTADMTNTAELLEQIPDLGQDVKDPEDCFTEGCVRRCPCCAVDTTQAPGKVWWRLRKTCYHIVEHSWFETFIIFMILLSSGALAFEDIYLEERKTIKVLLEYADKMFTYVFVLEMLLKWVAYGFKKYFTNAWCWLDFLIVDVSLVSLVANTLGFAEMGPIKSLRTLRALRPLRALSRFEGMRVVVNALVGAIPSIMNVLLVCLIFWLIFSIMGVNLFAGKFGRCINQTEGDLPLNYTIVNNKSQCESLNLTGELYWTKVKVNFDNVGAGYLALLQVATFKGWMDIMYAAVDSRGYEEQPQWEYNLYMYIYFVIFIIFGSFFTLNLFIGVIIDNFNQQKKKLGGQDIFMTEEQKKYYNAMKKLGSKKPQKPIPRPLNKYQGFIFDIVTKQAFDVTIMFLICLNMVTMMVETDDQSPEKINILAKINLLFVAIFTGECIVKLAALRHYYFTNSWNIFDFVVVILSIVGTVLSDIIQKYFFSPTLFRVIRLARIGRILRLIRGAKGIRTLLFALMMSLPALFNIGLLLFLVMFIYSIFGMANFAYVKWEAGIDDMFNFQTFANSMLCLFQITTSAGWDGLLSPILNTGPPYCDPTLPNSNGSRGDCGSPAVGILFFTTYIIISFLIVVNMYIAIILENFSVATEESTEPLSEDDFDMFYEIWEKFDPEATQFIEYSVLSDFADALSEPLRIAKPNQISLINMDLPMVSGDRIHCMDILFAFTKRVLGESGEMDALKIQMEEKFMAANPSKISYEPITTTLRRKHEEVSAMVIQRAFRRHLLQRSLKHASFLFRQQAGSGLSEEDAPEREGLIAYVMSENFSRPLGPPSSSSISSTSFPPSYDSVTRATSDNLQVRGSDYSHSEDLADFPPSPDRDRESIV
Data set [2] addresses T1, TEAD2.
Setting [3] is: 4 hours pre-incubation, read-out: Lipid HTRF TEAD1 IC50.
Where [4] appears, read: 4 hours pre-incubation, read-out: Lipid HTRF TEAD3 IC50.
The mark [5] stands for this setting: 4 hours pre-incubation, read-out: Lipid HTRF TEAD4 IC50.

Where two headings read alike, the source gives them in different places.

T1 sequence (Q15562 whole entry, species assumed): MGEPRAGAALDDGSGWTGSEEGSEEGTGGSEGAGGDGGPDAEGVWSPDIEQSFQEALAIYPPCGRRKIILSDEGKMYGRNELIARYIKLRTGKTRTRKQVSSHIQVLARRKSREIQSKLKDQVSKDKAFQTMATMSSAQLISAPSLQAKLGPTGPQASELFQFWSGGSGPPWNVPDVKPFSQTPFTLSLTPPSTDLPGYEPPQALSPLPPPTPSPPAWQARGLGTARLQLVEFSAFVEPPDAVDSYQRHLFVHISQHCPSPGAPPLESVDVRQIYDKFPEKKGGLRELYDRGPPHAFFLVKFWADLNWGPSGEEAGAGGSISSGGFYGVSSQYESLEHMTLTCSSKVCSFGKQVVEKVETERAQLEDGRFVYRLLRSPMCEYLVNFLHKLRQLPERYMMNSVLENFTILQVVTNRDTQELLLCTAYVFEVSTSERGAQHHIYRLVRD
Protocol for TEAD1: (§1) His-tagged TEAD proteins are pre-incubated with TEAD project compounds for 30 minutes or 4 hours at room temperature. Biotinylated lipid pocket probes are then added to the TEAD/Compound mixture and incubated for 60 minutes at room temperature. The lipid pocket probe competes with the test compound for the TEAD lipid pocket until equilibrium is reached. After 60 minutes, Europium labelled anti-His (Perkin Elmer #AD0110) and XL665 labelled streptavidin (CIS Bio 610SAXAC) are added to the TEAD/test compound/lipid pocket mixture and incubated for 30 minutes or 4 hours. […] If a TEAD lipid pocket binder such as binds and displaces the lipid pocket probe, the disruption of the TEAD:probe interaction results in a decrease in TR-FRET signal. The potency of compounds as TEAD lipid pocket binders is determined by IC50 value generated using a non-linear 4 parameter curve fit.
Protocol for TEAD3: as §1
Protocol for hNav1.5 sodium channels: Example 183 A: Effects of Test Article on Cloned hNav1.5 Sodium Channels Expressed in Mammalian Cells
Chinese hamster ovary (CHO) cells expressing cloned hNav1.5 sodium channels (hNav1.5, encoded by the human SCNSA gene) are responsible for INa sodium channel current. From a 10 mM stock solution, test article was diluted to make a 1 mM, 0.1 mM, and 0.01 mM sub stock, which were stored frozen. All chemicals used in solution preparation were purchased from Sigma-Aldrich (St. Louis, MO) and were of ACS reagent grade purity or higher. Stock solutions of the test articles and the positive control were prepared in dimethyl sulfoxide (DMSO) and stored frozen. Test article and positive control concentrations were prepared fresh daily by diluting stock solutions into a HEPES-buffered physiological saline (HB-PS) solution (composition in mM): NaCl, 137; KCl, 4.0; CaCl2, 1.8; MgCl2, 1; HEPES, 10; Glucose, 10; pH adjusted to 7.4 with NaOH (refrigerated until use). […] Each test article formulation was sonicated (Model 2510/5510, Branson Ultrasonics, Danbury, CT) at room temperature for 20 minutes to facilitate dissolution. In preparation for the recording session, a glass-lined 96-well compound plate was loaded with the appropriate amounts of test and control solutions and placed in the plate well of the QPatch HT® (Sophion Bioscience A/S, Denmark), an automatic parallel patch clamp system. […]

As to `C=CC(=O)NCc1nn(-c2ccc(C(F)(F)F)cc2)c2nccc([C@@H](O)CO)c12` (stereo in doubt) [Compound 88, N-((4-(1,2-dihydroxyethyl)-1-(4-(trifluoromethyl)phenyl)-1H-pyrazolo[3,4-b]pyridin-3-yl)methyl)acrylamide], the IC50 came to 80 nM on TEAD1 (setting [3]), 150 nM at TEAD2 [1], 2100 nM at TEAD3 (setting [4]) and 43 nM on TEAD4 (setting [5]).
As to `C=CC(=O)NCc1nn(-c2ccc(C(F)(F)F)cc2)c2nccc([C@H](O)CO)c12` (stereo in doubt) [Compound 100, N-((4-(1,2-dihydroxyethyl)-1-(4-(trifluoromethyl)phenyl)-1H-pyrazolo[3,4-b]pyridin-3-yl)methyl)acrylamide], the concentration for half-maximal inhibition (IC50) at TEAD1 (setting [3]) came out at 480 nM; on TEAD2 [1], 520 nM; at TEAD3 (setting [4]), 720 nM; at TEAD4 (setting [5]), 100 nM.
The like results for `C=CC(=O)NCc1nn(-c2cccc(OC(F)(F)F)c2)c2nccc([C@@H](O)CO)c12` (stereo in doubt) [Compound 131, N-((4-(1,2-dihydroxyethyl)-1-(3-(trifluoromethoxy)phenyl)-1H-pyrazolo[3,4-b]pyridin-3-yl)methyl)acrylamide] were, in that order, 290 nM, 89 nM, 2900 nM and 30 nM.
For `C=CC(=O)NCc1nn(-c2ccc(OC(F)(F)F)cc2)c2nccc([C@H](O)CO)c12` [Compound 17, N-[[4-[(1S)-1,2-dihydroxyethyl]-1-[4-(trifluoromethoxy)phenyl]pyrazolo[3,4-b]pyridin-3-yl]methyl]prop-2-enamide], the IC50 at TEAD1 (setting [3]) came out at 35 nM; at TEAD3 (setting [4]), 770 nM; at TEAD4 (setting [5]), 20 nM; against TEAD2 [2], 32 nM. The “NaV1.5 (Phasic) 10 uM concentration % inhibition” value at hNav1.5 sodium channels (10 uM, mean % inhibition, n>=2 cells) is listed as 32.1%.
Turning to `C=C(F)C(=O)N1CC(c2nn(-c3ccc(OC(F)(F)F)cc3)c3nccc(CO)c23)C1` [Compound 20, 2-fluoro-1-[3-[4-(hydroxymethyl)-1-[4-(trifluoromethoxy)phenyl]pyrazolo[3,4-b]pyridin-3-yl]azetidin-1-yl]prop-2-en-1-one], the IC50 at hNav1.5 sodium channels (0.01-100 uM, read-out: NaV1.5 (Phasic) IC50) worked out at 42100 nM.
In the case of `C=CC(=O)NCc1nn(-c2ccc(OC(F)(F)F)cc2)c2nccc(N3CCOCC3)c12` [Compound 77, N-((4-morpholino-1-(4-(trifluoromethoxy)phenyl)-1H-pyrazolo[3,4-b]pyridin-3-yl)methyl)acrylamide], the half-maximal inhibitory concentration (IC50) was 93 nM at TEAD1 (setting [3]), 40 nM against TEAD2 [1], 5700 nM at TEAD3 (setting [4]) and 65 nM on TEAD4 (setting [5]).
With `[2H]C([2H])=C([2H])C(=O)NCc1nn(-c2ccc(OC(F)(F)F)cc2)c2nccc(CO)c12` [Compound 111, 2,3,3-Trideuterio-N-[[4-(hydroxymethyl)-1-[4-(trifluoromethoxy)phenyl]pyrazolo[3,4-b]pyridin-3-yl]methyl]prop-2-enamide], the IC50 at TEAD1 (setting [3]) was 16 nM; against TEAD2 [1], 62 nM; on TEAD3 (setting [4]), 290 nM; at TEAD4 (setting [5]), 28 nM.
On to `[2H]C([2H])=C([2H])C(=O)NCc1nn(-c2ccc(OC(F)(F)F)cc2)c2nccc([C@H](O)CO)c12` [Compound 154, (S)-N-((4-(1,2-Dihydroxyethyl)-1-(4-(trifluoromethoxy)phenyl)-1H-pyrazolo[3,4-b]pyridin-3-yl)methyl)acrylamide-2,3,3-d3], for which the 50% inhibitory concentration (IC50) was 44 nM at TEAD1, 36 nM on TEAD2 [1], 1200 nM at TEAD3 and 22 nM at TEAD4.
